Laboratory results from patent publication US20030176494A1, “Novel coumarin and chromene compounds and methods of preparation and use thereof for treating or preventing viral infections” (priority 2001, published 2003).
≈ marks a conversion by molar mass, not a printed value. Like-named read-outs stand apart in the source and are kept apart here.

What was measured:
[1] = test system: Respiratory Syncytial Virus; assay: Respiratory syncytial virus antiviral assay (CPE inhibition, neutral red uptake); format: cell-based, Respiratory syncytial virus strain Utah 89; conditions: human respiratory syncytial virus
HIV = assay: Anti-HIV evaluation by MTT-tetrazolium method (inhibition of CPE in MT-2 / CEM-SS cells); format: cell-based; conditions: Human immunodeficiency virus 1, CEM-SS; read-out: Antiviral Activities (EC50) HIV
Experimental: This example illustrates the anti-HIV activity of various coumarin and chromene compounds which were evaluated using the published MTT-tetrazolium methods^8. Retroviral agents AZT and DDC were used as controls for comparison purposes.
The cells used for screening were the MT-2 and the human T4-lymphoblastoid cell line, CEM-SS, and were grown in RPMI 1640 medium supplemented with 10% fetal (v/v) heat-inactivated fetal calf serum and also containing 100 units/mL penicillin, 100 μg/mL streptomycin, 25 mM HEPES and 20 μg/mL gentamicin. The medium used for dilution of drugs and maintenance of cultures during the assay was the same as above. The HTLV-IIIB and HTLV-RF were propagated in CEM-SS. The appropriate amounts of the pure compounds for anti-HIV evaluations were dissolved in DMSO, then diluted in medium to the desired initial concentration. The concentrations (M medium) employed were […]; 0.001 μM; 0.0032 μM; 0.01 μM; 0.032 μM; 0.1 μM; 0.32 μM; 1 μM; 3.2 μM; 10 μM; 32 μM; and 100 μM. Each dilution was added to plates in the amount of 100 μL/well. Drugs were tested in triplicate wells per dilution with infected cells while in duplicate wells per dilution with uninfected cells for evaluation of cytotoxicity. On day 6 (CEM-SS cells) and day 7 (MT-2 cells) post-infection, the viable cells were measured with a tetrazolium salt, MTT (5 mg/mL), added to the test plates. A solution of 20% SDS in 0.001 N HCl is used to dissolve the MTT formazan produced. The optical density value was a function of the amount of formazan produced which was proportional to the number of viable cells. The percent inhibition of CPE per drug concentration was measured as a test over control and expressed in percent (T/C %).

HBV = HBV replication in cultures of 2.2.15 cells (HBV DNA blot hybridization); format: cell-based; conditions: Hepatitis B virus; read-out: Antiviral Activities (EC50) HBV
Experimental: Test compounds are then added daily for a continuous 9 day period. Culture medium (changed daily during the treatment period) is collected and stored for analysis of extracellular (virion) HBV DNA after 0, 3, 6, and 9 days of treatment. Treated cells are lysed 24 hours following day 9 of treatment for the analysis of intracellular HBV genomic forms. HBV DVA is then analyzed in a quantitative and qualitative manner for overall levels of HBV DNA (both extracellular and intracellular DNA) and the relative rate of HBV replication (intracellular DNA).
Both intracellular and extracellular HBV DNA are analyzed in order to (i) allow for verification of compound efficacy and (ii) provide possible data on the target site in the HBV replication pathway for the compound from examination of the pattern of viral replicative forms. The culture medium is changed daily during the treatment period to (i) prevent the buildup of potentially toxic metabolites derived from test compounds and (ii) provide an analysis of HBV virion production during discrete 24-hour intervals which enables a quantitative comparison of any effect on virion production.
The analysis of HBV DNA is performed using blot hybridization techniques (Southern and slot blot) and [^32P]-labeled HBV-specific probes. HBV DNA levels are measured by comparison to known amounts of HBV DNA standards applied to every nitrocellulose membrane (gel or slot blot). An AMBIS beta scanner, which measures the radioactive decay of the hybridized probes directly from the nitrocellulose membranes, is used for the quantitative analysis. Standard curves, generated by multiple analyses, are used to correlate CPM measurements made by the beta scanner with relative levels of target HBV DNA. The levels of HBV virion DNA released into the culture medium are analyzed by a slot blot hybridization procedure. HBV DNA levels are then compared to those at Day 0 to determine the effect of drug treatment.
The levels of RI and episomal monomers are used as an indicator of the relative level of HBV replication. Integrated HBV DNA is used to normalize the relative amounts of DNA in each lane because the levels of this class of HBV DNA would be expected to remain constant on a per cell basis. […] Inhibition of HBV DNA replication is indicated by the loss of RI without changes in the level of integrated HBV DNA.

VZV = VZV plaque reduction assay in human foreskin fibroblast cells; format: cell-based, Varicella Zoster Virus (Ellen strain)
Experimental: [table] Two days prior to use, HFF cells are plated into six-well plates and incubated at 37° C. with 5% CO2 and 90% humidity. On the date of assay, the drug is made up at twice the desired concentration in 2×MEM and then serially diluted 1:5 in 2×MEM using six concentrations of drug. […] The media is then aspirated from the wells and 0.2 mL of virus is added to each well in duplicate with 0.2 mL of media being added to drug toxicity wells. The plates are then incubated for one hour with shaking every fifteen minutes. […] The drug agarose mixture is applied to each well in 2 mL volume and the plates then incubated for three days, after which the cells were stained with a 1.5% solution of neutral red. At the end of 4-6 hr incubation period, the stain is aspirated, and plaques counted using a stereomicroscope at 10× magnification. The procedure is essentially the same as for the HSV plaque assay described above with two exceptions: 1. After addition of the drug, the plates are incubated for ten days. 2.

Measles Virus = assay: Measles virus antiviral assay (CPE inhibition, neutral red uptake, virus yield); format: cell-based, Measles virus strain CC; conditions: Measles morbillivirus
EBV = EBV assay: superinfection of Raji or Daudi cells with P3HR-1, immunofluorescence for EA and VCA; format: cell-based, Epstein-Barr Virus (P3HR-1)
Excerpt: There are two prototypes of infectious EBV. One is exemplified by the virus derived from supernatant fluids of the P3HR-1cell line. This cell line produces nontransforming virus that causes the production of early antigen (EA) after primary infection or superinfection of B cell lines. The other prototype is exemplified by the B-95-8 virus. This virus immortalized cord blood lymphocytes and induced tumors in marmosets. […] The virus used in our assays is P3HR-1.
Ramos is an exceptional B cell line derived from Burkitt's lymphoma tumor but containing no detectable EBV genome copies and is EBNA negative. Ramos/AW was obtained by in vitro infection of Ramos with the P3HR-1 virus and contains one resident EBV genome copy/cell. Raji is a Burkitt's lymphoma cell line containing 60 EBV genomes/cell, and will be the primary cell used for screening antiviral activity against EBV EA expression. Daudi is a low level producer that contains 152 EBV genome copies/cell. It spontaneously expresses EBV EA in 0.25%-0.5% of the cells. It will be used in follow-up studies to confirm activity. These cell lines respond to superinfection by EBV by expressing EA(D), EA(R), and VCA. All cell lines are maintained in RPMI-1640 medium supplemented by 10% FCS, L-glutamine and 100 μg/mL gentamicin. The cultures are fed twice weekly and the cell concentration adjusted to 3×10^5/mL. The cells are kept at 37° C. in a humidified atmosphere with 5% CO2.
Cells are infected with the P3HR-1 strain of EBV and the drugs to be tested are added after adsorption (45 minutes at 37° C.) and washing of the cell cultures. The cultures are incubated for two days in complete medium to allow viral gene expression. Following the 48 hr incubation period, the number of cells of each sample are counted and smears made. Monoclonal antibodies to the different EA components and VCA are then added to the cells incubated and washed. This is followed by a fluorescein conjugated rabbit anti-mouse Ig antibody; and the number of fluorescence positive cells in the smears are counted. The total number of cells in the cultures positive for EA or VCA are then calculated and compared.

Rhinovirus = Rhinovirus antiviral assay (CPE inhibition, neutral red uptake, virus yield); format: cell-based; conditions: Enterovirus
[2] = readout not stated, read-out: Antiviral Activities (EC50) Respiratory Syncitial
[3] = Human alphaherpesvirus 3, Fibroblast; read-out: Antiviral Activities (EC50) VZV
[4] = CPE inhibition, read-out: Antiviral Activities (EC50) Measles (CPE)
[5] = neutral red (NR) dye uptake, read-out: Antiviral Activities (EC50) Measles (NR)
[6] = human gammaherpesvirus 4; read-out: Antiviral Activities (EC50) EBV
[7] = readout not stated, read-out: Antiviral Activities (EC50) Rhinovirus
[8] = CPE inhibition, read-out: Antiviral Activities (EC50) Rhinovirus (CPE)
[9] = neutral red (NR) dye uptake, read-out: Antiviral Activities (EC50) Rhinovirus (NR)
[10] = CPE inhibition, read-out: Antiviral Activities (EC50) Respiratory Syncitial (CPE)
[11] = neutral red (NR) dye uptake, read-out: Antiviral Activities (EC50) Respiratory Syncitial (NR)

SMILES	EC50 [1, 2] [µg/mL]	EC50 (HIV) [µg/mL]	EC50 (HBV) [µg/mL]	EC50 (VZV; [3]) [µg/mL]	EC50 (Measles Virus; [4]) [µg/mL]	EC50 (Measles Virus; [5]) [µg/mL]	EC50 (EBV; [6]) [µg/mL]	also measured
CCCc1cc(=O)oc2cc(OC(=O)CC)c3c(c12)OC(C)(C)C=C3	1 (≈ 2.92 µM)	> 2	> 10	> 4	0.4 (≈ 1.17 µM)	0.3 (≈ 0.876 µM)	–	EC50 (Measles Virus; read-out: Antiviral Activities (EC50) Measles (virus yield)): 0.32 µg/mL (≈ 0.935 µM)
CCCc1cc(=O)oc2cc(OC(=O)C(C)(C)C)c3c(c12)OC(C)(C)C=C3	–	> 7	> 10	> 100	0.2 (≈ 0.54 µM)	0.6 (≈ 1.62 µM)	0.39 (≈ 1.05 µM)	–
CCCc1cc(=O)oc2cc(OS(=O)(=O)c3ccc(C)cc3)c3c(c12)OC(C)(C)C=C3	> 100	1.6 (≈ 3.63 µM)	> 10	> 100	–	–	0.2 (≈ 0.454 µM)	EC50 (Rhinovirus; [7]): > 100 µg/mL; EC50 (Measles Virus; readout not stated, read-out: Antiviral Activities (EC50) Measles): > 100 µg/mL
CCCc1cc(=O)oc2cc(O)c3c(c12)OC(C)(C)C=C3	1 (≈ 3.49 µM)	–	> 10	89 (≈ 311 µM)	0.5 (≈ 1.75 µM)	0.6 (≈ 2.1 µM)	> 50	–
CCCc1cc(=O)oc2cc(OCC(C)(C)C(=O)O)c3c(c12)OC(C)(C)C=C3	> 100	> 8	2.6 (≈ 6.73 µM)	–	> 100	> 100	–	EC50 (Rhinovirus; [8]): 10 µg/mL (≈ 25.9 µM); EC50 (Rhinovirus; [9]): 1 µg/mL (≈ 2.59 µM)
CCCc1cc(=O)oc2cc(OC(C)CCO)c3c(c12)OC(C)(C)C=C3 (stereo not shown)	–	1.5 (≈ 4.18 µM)	–	–	–	–	–	–
CCCc1cc(=O)oc2cc(OC(C)CCO[Si](C)(C)C(C)(C)C)c3c(c12)OC(C)(C)C=C3 (stereo not shown)	–	> 18	–	–	–	–	–	–
CCCc1cc(=O)oc2cc(O)cc(O)c12	6 (≈ 27.2 µM)	–	> 2.2	–	> 100	> 100	–	EC50 (EBV; human gammaherpesvirus 4, read-out: Antiviral Activities (EC50) EBV): > 50 µg/mL; EC50 (Rhinovirus; [7]): 27 µg/mL (≈ 123 µM); EC50 (VZV; Human alphaherpesvirus 3, Fibroblast, read-out: Antiviral Activities (EC50) VZV): 5.9 µg/mL (≈ 26.8 µM)
CCCc1cc(=O)oc2cc(O)c(C(=O)CC)c(O)c12	–	> 5	1 (≈ 3.62 µM)	> 4	3 (≈ 10.9 µM)	0.4 (≈ 1.45 µM)	8.5 (≈ 30.8 µM)	EC50 (Rhinovirus; [8]): 2 µg/mL (≈ 7.24 µM); EC50 (Rhinovirus; [9]): 5 µg/mL (≈ 18.1 µM)
CCCc1cc(=O)oc2c(C(=O)CC)c(O)cc(O)c12	–	–	> 3	> 0.8	10 (≈ 36.2 µM)	> 100	0.33 (≈ 1.19 µM)	EC50 (Rhinovirus; [8]): 30 µg/mL (≈ 109 µM); EC50 (Rhinovirus; [9]): 28 µg/mL (≈ 101 µM); EC50 [1, 10]: 2 µg/mL (≈ 7.24 µM); EC50 [1, 11]: 4 µg/mL (≈ 14.5 µM)
CCCc1cc(=O)oc2c(C(=O)CC)c(O)c3c(c12)OC(C)(C)C=C3	–	> 68	> 3	16.1 (≈ 47 µM)	20 (≈ 58.4 µM)	> 100	27 (≈ 78.9 µM)	EC50 [1, 10]: 20 µg/mL (≈ 58.4 µM); EC50 [1, 11]: 40 µg/mL (≈ 117 µM)
CCCc1cc(=O)oc2cc(O[C@H](C)[C@@H](C)CO)c3c(c12)OC(C)(C)C=C3	–	> 2	–	–	–	–	–	–
CCCc1cc(=O)oc2cc(O[C@H](C)[C@@H](C)CO[Si](C)(C)C(C)(C)C)c3c(c12)OC(C)(C)C=C3	–	7.2 (≈ 14.8 µM)	–	–	–	–	–	–
CCCc1cc(=O)oc2c(C(=O)C(C)(O)C(C)O)c(O)c3c(c12)OC(C)(C)C=C3 (stereo not shown)	–	> 24	> 4	19.9 (≈ 49.4 µM)	20 (≈ 49.7 µM)	40 (≈ 99.4 µM)	–	EC50 (Rhinovirus; [8]): 0.5 µg/mL (≈ 1.24 µM); EC50 (Rhinovirus; [9]): 1 µg/mL (≈ 2.48 µM); EC50 [1, 10]: 50 µg/mL (≈ 124 µM); EC50 [1, 11]: 40 µg/mL (≈ 99.4 µM)
CCCc1cc(=O)oc2c3c(c4c(c12)OC(C)(C)[C@H](O)[C@H]4OC(=O)c1cccc(Cl)c1)O[C@H](C)[C@@H](C)[C@@H]3O	–	8.4 (≈ 15.5 µM)	–	–	–	–	–	–
CCCc1cc(=O)oc2cc(OC(=O)C(C)(C)C)cc(O)c12 [drawing 26]	–	–	> 3	83 (≈ 273 µM)	–	–	1.1 (≈ 3.61 µM)	–
